Measured values published in patent US11254668B2, “Pyrazolo[1,5-A]pyrazin-4-yl and related derivatives” (Pfizer Inc., priority 2017, dated 2022).
Where two headings read alike, the source gives them in different places.

Tests used:
Format in all cases: biochemical
[1] = biological target: JAK3 (Homo sapiens (Human), UniProt P52333); assay: JAK Caliper Enzyme Assay at 1 mM ATP, JAK3
Procedure: (§1) Compounds of the invention were evaluated by in vitro methods to determine their respective ability to inhibit the JAK kinases (TYK2, JAK1, JAK2, JAK3).
(§2) The human JAK inhibitory activity was determined by using a microfluidic assay to monitor phosphorylation of a synthetic peptide by the recombinant human kinase domain of each of the four members of the JAK family, JAK1, JAK2, JAK3 and TYK2. […] Each assay condition was optimized for enzyme concentration and room temperature incubation time to obtain a conversion rate of 20% to 30% phosphorylated peptide product. Reactions were terminated by the addition of stop buffer containing EDTA. Utilizing the LabChip 3000 mobility shift technology (Caliper Life Science), each assay reaction was sampled to determine the level of phosphorylation. This technology is separation-based, allowing direct detection of fluorescently labeled substrates and products. Separations are controlled by a combination of vacuum pressure and electric field strength optimized for each peptide substrate.
(§3) JAK Caliper Enzyme Assay at 1mM ATP
(§4) Compounds were added to a 384-well plate.
(§5) The data was collected using the HTS Well Analyzer software from Caliper Life Sciences. The data output for data analysis is the percent product converted calculated on peak height (Equation 1). % product converted=100*((product)/(product+substrate)) Equation 1: […]
(§6) The percent effect at each compound concentration was calculated based on the positive and negative control well contained within each assay plate (Equation 2). […] The negative control wells contained DMSO alone (at the same concentration as the compound wells) that was used to set the baseline activity in the assay (i.e., uninhibited JAK1, JAK2, JAK3 or TYK2). % effect=100*([…](positive control-negative control)) Equation 2: […]
(§7) The percent effect was plotted against the compound concentration compound.

[2] = biological target: JAK1 (Homo sapiens (Human), UniProt P23458); assay: JAK Caliper Enzyme Assay at 1 mM ATP, JAK1
Procedure: as §1, §2, §3, §4, §5, §6, §7

[3] = biological target: TYK2 (Homo sapiens (Human), UniProt P29597); assay: JAK Caliper Enzyme Assay at 1 mM ATP, TYK2
Procedure: as §1, §2, §3, §4, §5, §6, §7

Chain of JAK3 (P52333 822-1111): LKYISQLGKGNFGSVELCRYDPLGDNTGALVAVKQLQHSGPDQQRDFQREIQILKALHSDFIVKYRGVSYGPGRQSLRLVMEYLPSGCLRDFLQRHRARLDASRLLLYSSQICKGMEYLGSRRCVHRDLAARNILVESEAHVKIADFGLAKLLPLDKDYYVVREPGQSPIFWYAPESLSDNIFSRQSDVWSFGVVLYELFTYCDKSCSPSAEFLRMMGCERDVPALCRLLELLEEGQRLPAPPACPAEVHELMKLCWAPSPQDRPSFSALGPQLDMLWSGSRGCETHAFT
Chain of JAK1 (P23458 875-1153): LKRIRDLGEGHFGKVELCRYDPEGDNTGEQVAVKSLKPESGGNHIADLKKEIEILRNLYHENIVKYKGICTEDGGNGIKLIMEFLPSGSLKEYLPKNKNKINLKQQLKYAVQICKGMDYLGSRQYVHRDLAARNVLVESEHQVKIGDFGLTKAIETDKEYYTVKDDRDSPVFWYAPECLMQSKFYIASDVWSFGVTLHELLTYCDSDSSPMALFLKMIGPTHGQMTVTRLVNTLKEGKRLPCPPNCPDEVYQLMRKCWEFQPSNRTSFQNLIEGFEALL
Chain of TYK2 (P29597 897-1176): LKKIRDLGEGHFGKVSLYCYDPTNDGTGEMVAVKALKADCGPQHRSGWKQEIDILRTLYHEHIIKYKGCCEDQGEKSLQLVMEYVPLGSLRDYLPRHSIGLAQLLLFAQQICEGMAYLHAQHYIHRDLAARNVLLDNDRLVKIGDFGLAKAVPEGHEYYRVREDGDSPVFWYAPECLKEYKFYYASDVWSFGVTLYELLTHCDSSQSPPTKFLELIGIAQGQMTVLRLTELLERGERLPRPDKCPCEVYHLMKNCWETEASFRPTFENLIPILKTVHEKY

| Structure (SMILES) | IC50 [1] | IC50 [2] | IC50 [3] | IC50 ([1]; JAK Caliper enzyme assay) | IC50 ([2]; JAK Caliper enzyme assay) |
| --- | --- | --- | --- | --- | --- |
| N#CC[C@]1(n2cc(-c3nc(-c4cnn(CCO)c4)cc4ncccc34)cn2)C[C@@H](C#N)C1 [Example 6, cis-3-(cyanomethyl)-3-(4-{7-[1-(2-hydroxyethyl)-1H-pyrazol-4-yl]-1,6-naphthyridin-5-yl}-1H-pyrazol-1-yl)cyclobutanecarbonitrile] | 1120 nM | 21 nM | 15 nM | – | – |
| N#CC[C@]1(n2cc(-c3nc(-c4cnn(CCO)c4)cc4ncccc34)cn2)C[C@H](C#N)C1 [Example 7, trans-3-(cyanomethyl)-3-(4-{7-[1-(2-hydroxyethyl)-1H-pyrazol-4-yl]-1,6-naphthyridin-5-yl}-1H-pyrazol-1-yl)cyclobutanecarbonitrile] | > 10000 nM | 189 nM | 89 nM | – | – |
| N#CCC1(n2ccc(-c3nc(-c4ccn[nH]4)cc4ncccc34)n2)CN(S(=O)(=O)C2CC2)C1 [Example 18, [1-(cyclopropylsulfonyl)-3-{3-[7-(1H-pyrazol-5-yl)-1,6-naphthyridin-5-yl]-1H-pyrazol-1-yl}azetidin-3-yl]acetonitrile] | > 10000 nM | 451 nM | 20 nM | – | – |
| CC(=O)N(C)C1CC(CC#N)(n2ccc(-c3nc(-c4cc[nH]n4)cc4ncccc34)n2)C1 (stereo not drawn) [Example 33, N-[trans-3-(cyanomethyl)-3-{3-[7-(1H-pyrazol-3-yl)-1,6-naphthyridin-5-yl]-pyrazol-1-yl}cyclobutyl]-N-methylacetamide] | > 10000 nM | 5700 nM | 850 nM | – | – |
| CC(=O)N(C)[C@H]1C[C@](CC#N)(n2ccc(-c3nc(-c4cc[nH]n4)cc4ncccc34)n2)C1 [Example 34, N-[cis-3-(cyanomethyl)-3-{3-[7-(1H-pyrazol-3-yl)-1,6-naphthyridin-5-yl]-pyrazol-1-yl}cyclobutyl]-N-methylacetamide] | > 10000 nM | 1700 nM | 238 nM | – | – |
| Cc1cc(-c2cc3ncccc3c(-c3ccn(C4(CC#N)CN(CC(F)(F)F)C4)n3)n2)n[nH]1 [Example 42, [3-{3-[7-(5-methyl-1H-pyrazol-3-yl)-1,6-naphthyridin-5-yl]-1H-pyrazol-1-yl}-1-(2,2,2-trifluoroethyl)azetidin-3-yl]acetonitrile] | > 10000 nM | 1610 nM | 36 nM | – | – |
| Cn1nc(-c2cc3ncccc3c(-c3ccn([C@]4(CC#N)C[C@@H](C#N)C4)n3)n2)cc1CO [Example 62, trans-3-(cyanomethyl)-3-(3-{7-[5-(hydroxymethyl)-1-methyl-1H-pyrazol-3-yl]-1,6-naphthyridin-5-yl}-1H-pyrazol-1-yl)cyclobutanecarbonitrile] | > 10000 nM | > 10000 nM | 153 nM | – | – |
| Cn1nc(-c2cc3ncccc3c(-c3ccn([C@]4(CC#N)C[C@H](C#N)C4)n3)n2)cc1CO [Example 63, cis-3-(cyanomethyl)-3-(3-{7-[5-(hydroxymethyl)-1-methyl-1H-pyrazol-3-yl]-1,6-naphthyridin-5-yl}-1H-pyrazol-1-yl)cyclobutanecarbonitrile] | 6550 nM | 672 nM | 17 nM | – | – |
| Cn1nc(-c2cc3ncccc3c(-c3ccn([C@]4(CC#N)C[C@@H](C#N)C4)n3)n2)cc1N [Example 65, trans-3-{3-[7-(5-amino-1-methyl-1H-pyrazol-3-yl)-1,6-naphthyridin-5-yl]-1H-pyrazol-1-yl}-3-(cyanomethyl)cyclobutanecarbonitrile] | > 10000 nM | 1590 nM | 18 nM | – | – |
| Cn1nc(-c2cc3ncccc3c(-c3ccn([C@]4(CC#N)C[C@H](C#N)C4)n3)n2)cc1N [Example 66, cis-3-{3-[7-(5-amino-1-methyl-1H-pyrazol-3-yl)-1,6-naphthyridin-5-yl]-1H-pyrazol-1-yl}-3-(cyanomethyl)cyclobutanecarbonitrile] | 2500 nM | 155 nM | 7 nM | – | – |
| Cn1nccc1C1CC(CC#N)(n2ccc(-c3nc(-c4cn[nH]c4)cc4ncccc34)n2)C1 (stereo not drawn) [Example 86, [cis-3-(1-methyl-1H-pyrazol-5-yl)-1-{3-[7-(1H-pyrazol-4-yl)-1,6-naphthyridin-5-yl]-1H-pyrazol-1-yl}cyclobutyl]acetonitrile] | > 10000 nM | 2410 nM | 430 nM | – | – |
| Cn1cc(-c2cc3ncccc3c(-c3ccn(C4(CC#N)CN(CC5CC5)C4)n3)n2)cn1 [Example 101, [1-(cyclopropylmethyl)-3-{3-[7-(1-methyl-1H-pyrazol-4-yl)-1,6-naphthyridin-5-yl]-1H-pyrazol-1-yl}azetidin-3-yl]acetonitrile] | > 10000 nM | 2040 nM | 73 nM | – | – |
| CCn1cc(-c2cc3ncccc3c(-c3ccn(C4(CC#N)CC(C#N)C4)n3)n2)cn1 (stereo not drawn) [Example 112, cis-3-(cyanomethyl)-3-{3-[7-(1-ethyl-1H-pyrazol-4-yl)-1,6-naphthyridin-5-yl]-1H-pyrazol-1-yl}cyclobutanecarbonitrile] | 634 nM | 43 nM | 12 nM | – | – |
| CCn1cc(-c2cc3ncccc3c(-c3ccn([C@]4(CC#N)C[C@@H](C#N)C4)n3)n2)cn1 [Example 113, trans-3-(cyanomethyl)-3-{3-[7-(1-ethyl-1H-pyrazol-4-yl)-1,6-naphthyridin-5-yl]-1H-pyrazol-1-yl}cyclobutanecarbonitrile] | 8970 nM | 409 nM | 22 nM | – | – |
| C=C(CO)n1cc(-c2cc3ncccc3c(-c3ccn(C4(CC#N)CN(S(C)(=O)=O)C4)n3)n2)cn1 [Example 131, [3-(3-{7-[1-(3-hydroxyprop-1-en-2-yl)-1H-pyrazol-4-yl]-1,6-naphthyridin-5-yl}-1H-pyrazol-1-yl)-1-(methylsulfonyl)azetidin-3-yl]acetonitrile] | > 10000 nM | 1630 nM | 251 nM | – | – |
| CS(=O)(=O)N1CC(CC#N)(n2ccc(-c3nc(-c4cnn(CC5(O)COC5)c4)cc4ncccc34)n2)C1 [Example 133, {3-[3-(7-{1-[(3-hydroxyoxetan-3-yl)methyl]-1H-pyrazol-4-yl}-1,6-naphthyridin-5-yl)-1H-pyrazol-1-yl]-1-(methylsulfonyl)azetidin-3-yl}acetonitrile] | > 10000 nM | 1670 nM | 76 nM | – | – |
| N#CCC1(n2ccc(-c3nc(-c4ncc[nH]4)cc4ncccc34)n2)CN(CC(F)(F)F)C1 [Example 148, [3-{3-[7-(1H-imidazol-2-yl)-1,6-naphthyridin-5-yl]-1H-pyrazol-1-yl}-1-(2,2,2-trifluoroethyl)azetidin-3-yl]acetonitrile] | > 10000 nM | 8800 nM | 235 nM | – | – |
| Cn1cnc(-c2cc3ncccc3c(-c3ccn(C4(CC#N)CN(CC(F)(F)F)C4)n3)n2)c1 [Example 149, [3-{3-[7-(1-methyl-1H-imidazol-4-yl)-1,6-naphthyridin-5-yl]-1H-pyrazol-1-yl}-1-(2,2,2-trifluoroethyl)azetidin-3-yl]acetonitrile] | > 10000 nM | > 10000 nM | 125 nM | – | – |
| N#CCC1(n2ccc(-c3nc(-c4cnn(C5CCCCO5)n4)cc4ncccc34)n2)CN(CC(F)(F)F)C1 (stereo not shown) [Example 155, [3-(3-{7-[2-(tetrahydro-2H-pyran-2-yl)-2H-1,2,3-triazol-4-yl]-1,6-naphthyridin-5-yl}-1H-pyrazol-1-yl)-1-(2,2,2-trifluoroethyl)azetidin-3-yl]acetonitrile] | > 10000 nM | 6460 nM | 312 nM | – | – |
| N#CCC1(n2ccc(-c3nc(-c4cccnc4)cc4ncccc34)n2)CN(CC(F)(F)F)C1 [Example 171, [3-{3-[7-(pyridin-3-yl)-1,6-naphthyridin-5-yl]-1H-pyrazol-1-yl}-1-(2,2,2-trifluoroethyl)azetidin-3-yl]acetonitrile] | > 10000 nM | 2730 nM | 66 nM | – | – |
| CS(=O)(=O)N1CC(CC#N)(n2ccc(-c3nc(-c4cccc(O)n4)cc4ncccc34)n2)C1 [Example 180, [3-{3-[7-(6-hydroxypyridin-2-yl)-1,6-naphthyridin-5-yl]-1H-pyrazol-1-yl}-1-(methylsulfonyl)azetidin-3-yl]acetonitrile] | > 10000 nM | 3740 nM | 42 nM | – | – |
| CS(=O)(=O)N1CC(CC#N)(n2ccc(-c3nc(-c4ccnc(O)c4)cc4ncccc34)n2)C1 [Example 186, [3-{3-[7-(2-hydroxypyridin-4-yl)-1,6-naphthyridin-5-yl]-1H-pyrazol-1-yl}-1-(methylsulfonyl)azetidin-3-yl]acetonitrile] | > 10000 nM | 4860 nM | 74 nM | – | – |
| N#CCC1(n2ncc(-c3cc(-c4cccc(C(N)=O)c4)cc4ncccc34)n2)CC(C#N)C1 (stereo not drawn) [Example 431, 3-(5-{2-[cis-3-cyano-1-(cyanomethyl)cyclobutyl]-2H-1,2,3-triazol-4-yl}quinolin-7-yl)benzamide] | – | – | – | > 10000 nM | 572 nM |
| N#CC[C@]1(n2ncc(-c3cc(-c4cccc(C(N)=O)c4)cc4ncccc34)n2)C[C@@H](C#N)C1 [Example 432, 3-(5-{2-[trans-3-cyano-1-(cyanomethyl)cyclobutyl]-2H-1,2,3-triazol-4-yl}quinolin-7-yl)benzamide] | – | – | – | > 10000 nM | 3900 nM |
